Source: ChEMBL document CHEMBL4304811, “Development of a Water-Soluble Indolylmaleimide Derivative IM-93 Showing Dual Inhibition of Ferroptosis and NETosis” (ACS Med Chem Lett, 2019)

Tests used:
[1] = target: Mitogen-activated protein kinase kinase kinase 5 (Homo sapiens) (UniProt Q99683); assay: Binding affinity to wild-type human partial length ASK1 (E648 to S964 residues) expressed in bacterial expression system assessed as residual binding level at 10 uM by Kinomescan method relative to control
Chain of Mitogen-activated protein kinase kinase kinase 5 (Homo sapiens) (Q99683 whole entry, the tested form may be a part): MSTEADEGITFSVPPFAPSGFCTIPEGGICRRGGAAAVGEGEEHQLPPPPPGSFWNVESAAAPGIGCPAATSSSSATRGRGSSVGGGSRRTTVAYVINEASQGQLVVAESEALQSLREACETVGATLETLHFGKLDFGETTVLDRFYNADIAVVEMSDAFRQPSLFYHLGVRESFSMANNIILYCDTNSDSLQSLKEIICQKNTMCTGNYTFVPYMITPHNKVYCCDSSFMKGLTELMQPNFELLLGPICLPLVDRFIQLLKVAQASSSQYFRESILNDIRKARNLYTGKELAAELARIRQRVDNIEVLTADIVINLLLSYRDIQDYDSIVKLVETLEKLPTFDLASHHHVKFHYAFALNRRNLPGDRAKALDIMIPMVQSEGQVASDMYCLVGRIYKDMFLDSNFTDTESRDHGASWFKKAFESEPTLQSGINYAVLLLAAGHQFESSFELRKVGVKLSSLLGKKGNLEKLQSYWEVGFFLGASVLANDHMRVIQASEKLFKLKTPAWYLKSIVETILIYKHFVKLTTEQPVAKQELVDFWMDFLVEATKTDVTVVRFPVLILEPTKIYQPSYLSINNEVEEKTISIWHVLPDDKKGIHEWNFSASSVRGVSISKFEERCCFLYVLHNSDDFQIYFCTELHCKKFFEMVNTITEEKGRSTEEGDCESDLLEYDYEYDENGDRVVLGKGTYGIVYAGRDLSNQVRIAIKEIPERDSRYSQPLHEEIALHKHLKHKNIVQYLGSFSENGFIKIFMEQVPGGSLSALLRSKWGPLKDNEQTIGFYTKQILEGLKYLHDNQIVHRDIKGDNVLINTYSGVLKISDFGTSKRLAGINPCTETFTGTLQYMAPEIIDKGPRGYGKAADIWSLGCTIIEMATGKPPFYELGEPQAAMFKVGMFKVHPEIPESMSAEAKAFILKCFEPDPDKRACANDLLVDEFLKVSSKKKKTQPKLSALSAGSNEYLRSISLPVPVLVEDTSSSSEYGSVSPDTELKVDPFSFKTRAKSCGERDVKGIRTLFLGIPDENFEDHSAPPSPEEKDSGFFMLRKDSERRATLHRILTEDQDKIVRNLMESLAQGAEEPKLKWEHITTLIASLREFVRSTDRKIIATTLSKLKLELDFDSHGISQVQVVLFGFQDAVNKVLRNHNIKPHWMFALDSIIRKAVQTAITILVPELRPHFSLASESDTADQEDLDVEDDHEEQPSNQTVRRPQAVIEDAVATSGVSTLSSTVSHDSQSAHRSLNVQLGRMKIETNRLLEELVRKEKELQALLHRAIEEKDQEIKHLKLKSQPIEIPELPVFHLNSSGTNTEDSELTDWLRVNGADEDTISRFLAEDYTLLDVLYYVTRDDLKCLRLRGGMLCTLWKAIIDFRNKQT

[2] = target: Serine/threonine-protein kinase B-raf (Homo sapiens) (UniProt P15056); assay: Binding affinity to wild-type human partial length BRAF (S429 to E741 residues) expressed in mammalian expression system assessed as residual binding level at 10 uM by Kinomescan method relative to control
[3] = target: Citron Rho-interacting kinase (Homo sapiens) (UniProt O14578); assay: Binding affinity to wild-type human partial length CIT (M68 to E432 residues) expressed in bacterial expression system assessed as residual binding level at 10 uM by Kinomescan method relative to control
[4] = target: Dual specificity protein kinase CLK4 (Homo sapiens) (UniProt Q9HAZ1); assay: Binding affinity to wild-type human partial length CLK4 (R135 to K481 residues) expressed in bacterial expression system assessed as residual binding level at 10 uM by Kinomescan method relative to control
[5] = target: Casein kinase I isoform gamma-2 (Homo sapiens) (UniProt P78368); assay: Binding affinity to wild-type human full length CSNK1G2 (M1 to K415 residues) expressed in bacterial expression system assessed as residual binding level at 10 uM by Kinomescan method relative to control
[6] = target: Megakaryocyte-associated tyrosine-protein kinase (Homo sapiens) (UniProt P42679); assay: Binding affinity to wild-type human full length CTK (M43 to P508 residues) expressed in mammalian expression system assessed as residual binding level at 10 uM by Kinomescan method relative to control
Chain of Megakaryocyte-associated tyrosine-protein kinase (Homo sapiens) (P42679 whole entry, the tested form may be a part): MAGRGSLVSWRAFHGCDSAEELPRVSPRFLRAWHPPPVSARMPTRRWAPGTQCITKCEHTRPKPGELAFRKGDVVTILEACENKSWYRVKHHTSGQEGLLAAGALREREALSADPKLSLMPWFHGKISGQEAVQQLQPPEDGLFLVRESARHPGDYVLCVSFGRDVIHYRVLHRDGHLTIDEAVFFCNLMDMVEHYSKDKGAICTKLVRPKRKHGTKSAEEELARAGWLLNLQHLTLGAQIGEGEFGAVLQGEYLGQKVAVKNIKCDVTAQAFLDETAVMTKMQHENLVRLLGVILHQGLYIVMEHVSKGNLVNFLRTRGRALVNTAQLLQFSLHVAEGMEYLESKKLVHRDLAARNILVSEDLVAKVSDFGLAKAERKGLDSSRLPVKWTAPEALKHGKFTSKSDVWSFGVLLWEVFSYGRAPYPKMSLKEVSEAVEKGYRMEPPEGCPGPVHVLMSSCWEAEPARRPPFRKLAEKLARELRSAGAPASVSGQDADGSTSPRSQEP

[7] = target: Serine/threonine-protein kinase DCLK3 (Homo sapiens) (UniProt Q9C098); assay: Binding affinity to wild-type human partial length DCAMKL3 (E140 to V628 residues) expressed in bacterial expression system assessed as residual binding level at 10 uM by Kinomescan method relative to control
Chain of Serine/threonine-protein kinase DCLK3 (Homo sapiens) (Q9C098 whole entry, the tested form may be a part): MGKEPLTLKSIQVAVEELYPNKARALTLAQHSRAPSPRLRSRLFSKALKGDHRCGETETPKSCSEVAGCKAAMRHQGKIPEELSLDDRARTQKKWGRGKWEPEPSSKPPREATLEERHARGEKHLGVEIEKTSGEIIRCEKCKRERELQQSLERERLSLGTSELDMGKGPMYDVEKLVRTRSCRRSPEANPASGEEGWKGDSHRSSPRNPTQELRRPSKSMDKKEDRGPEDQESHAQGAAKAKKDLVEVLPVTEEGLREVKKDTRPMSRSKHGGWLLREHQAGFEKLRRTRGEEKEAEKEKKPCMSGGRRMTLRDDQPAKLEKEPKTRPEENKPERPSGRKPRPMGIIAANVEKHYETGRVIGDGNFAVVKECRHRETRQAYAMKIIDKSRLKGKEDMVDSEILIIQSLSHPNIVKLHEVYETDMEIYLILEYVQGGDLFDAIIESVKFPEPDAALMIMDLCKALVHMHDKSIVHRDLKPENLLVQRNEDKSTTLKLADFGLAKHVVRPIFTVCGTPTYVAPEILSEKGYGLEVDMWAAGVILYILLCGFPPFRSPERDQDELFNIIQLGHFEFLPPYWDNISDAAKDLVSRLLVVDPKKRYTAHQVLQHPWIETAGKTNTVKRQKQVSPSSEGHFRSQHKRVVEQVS

[8] = target: Myotonin-protein kinase (Homo sapiens) (UniProt Q09013); assay: Binding affinity to wild-type human partial length DMPK (V47 to V415 residues) expressed in bacterial expression system assessed as residual binding level at 10 uM by Kinomescan method relative to control
[9] = target: Dual specificity tyrosine-phosphorylation-regulated kinase 1A (Homo sapiens) (UniProt Q13627); assay: Binding affinity to wild-type human partial length DYRK1A (H129 to S509 residues) expressed in mammalian expression system assessed as residual binding level at 10 uM by Kinomescan method relative to control
[10] = test system: Epidermal growth factor receptor (Homo sapiens), P00533 [UNDEFINED MUTATION]; assay: Binding affinity to human partial length EGFR L747-S752del/P753S mutant expressed in bacterial expression system assessed as residual binding level at 10 uM by Kinomescan method relative to control
[11] = target: Ephrin type-B receptor 1 (Homo sapiens) (UniProt P54762); assay: Binding affinity to wild-type human partial length EPHB1 (P589 to T911 residues) expressed in bacterial expression system assessed as residual binding level at 10 uM by Kinomescan method relative to control
[12] = target: Receptor tyrosine-protein kinase erbB-4 (Homo sapiens) (UniProt Q15303); assay: Binding affinity to wild-type human partial length ERBB4 (L690 to K994 residues) expressed in bacterial expression system assessed as residual binding level at 10 uM by Kinomescan method relative to control
Chain of Receptor tyrosine-protein kinase erbB-4 (Homo sapiens) (Q15303 whole entry, the tested form may be a part): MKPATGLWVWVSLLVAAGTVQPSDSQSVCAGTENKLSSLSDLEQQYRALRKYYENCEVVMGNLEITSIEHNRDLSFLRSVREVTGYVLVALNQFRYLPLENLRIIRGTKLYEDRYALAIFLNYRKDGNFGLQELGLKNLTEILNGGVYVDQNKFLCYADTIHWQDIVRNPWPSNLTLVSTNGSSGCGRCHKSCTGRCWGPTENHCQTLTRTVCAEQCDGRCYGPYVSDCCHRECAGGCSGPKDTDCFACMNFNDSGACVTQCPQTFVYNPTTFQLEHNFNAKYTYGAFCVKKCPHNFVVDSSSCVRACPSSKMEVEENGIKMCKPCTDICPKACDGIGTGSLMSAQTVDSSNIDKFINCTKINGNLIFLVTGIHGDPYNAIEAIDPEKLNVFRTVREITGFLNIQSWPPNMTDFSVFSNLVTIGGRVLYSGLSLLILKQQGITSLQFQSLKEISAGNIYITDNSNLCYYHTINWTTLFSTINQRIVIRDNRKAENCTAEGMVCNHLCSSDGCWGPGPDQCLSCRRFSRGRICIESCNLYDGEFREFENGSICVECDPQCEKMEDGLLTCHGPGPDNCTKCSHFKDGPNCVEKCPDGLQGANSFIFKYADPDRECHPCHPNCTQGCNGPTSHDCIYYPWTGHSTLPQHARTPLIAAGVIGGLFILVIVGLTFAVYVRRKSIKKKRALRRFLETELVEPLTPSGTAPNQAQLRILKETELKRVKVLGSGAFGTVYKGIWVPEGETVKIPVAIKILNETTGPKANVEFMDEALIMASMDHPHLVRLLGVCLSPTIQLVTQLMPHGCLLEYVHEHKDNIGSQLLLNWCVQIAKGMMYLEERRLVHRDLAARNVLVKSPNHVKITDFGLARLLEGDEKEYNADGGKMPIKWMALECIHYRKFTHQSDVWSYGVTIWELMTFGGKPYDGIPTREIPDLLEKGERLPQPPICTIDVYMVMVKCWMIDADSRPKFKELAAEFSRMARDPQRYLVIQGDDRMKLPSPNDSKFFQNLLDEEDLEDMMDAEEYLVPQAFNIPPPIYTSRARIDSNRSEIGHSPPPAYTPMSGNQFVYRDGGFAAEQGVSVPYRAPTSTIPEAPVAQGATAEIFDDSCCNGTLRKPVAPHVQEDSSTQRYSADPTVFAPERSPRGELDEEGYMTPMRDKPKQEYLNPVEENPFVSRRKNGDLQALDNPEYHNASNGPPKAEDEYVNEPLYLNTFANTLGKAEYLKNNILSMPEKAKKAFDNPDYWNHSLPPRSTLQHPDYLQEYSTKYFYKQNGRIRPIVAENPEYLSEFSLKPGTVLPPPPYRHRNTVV

[13] = test system: Receptor-type tyrosine-protein kinase FLT3 (Homo sapiens), P36888 [UNDEFINED MUTATION]; assay: Binding affinity to human partial length FLT3 ITD mutant expressed in bacterial expression system assessed as residual binding level at 10 uM by Kinomescan method relative to control
[14] = target: Mitogen-activated protein kinase kinase kinase kinase 3 (Homo sapiens) (UniProt Q8IVH8); assay: Binding affinity to wild-type human partial length MAP4K3 (M1 to D301 residues) expressed in bacterial expression system assessed as residual binding level at 10 uM by Kinomescan method relative to control
Chain of Mitogen-activated protein kinase kinase kinase kinase 3 (Homo sapiens) (Q8IVH8 whole entry, the tested form may be a part): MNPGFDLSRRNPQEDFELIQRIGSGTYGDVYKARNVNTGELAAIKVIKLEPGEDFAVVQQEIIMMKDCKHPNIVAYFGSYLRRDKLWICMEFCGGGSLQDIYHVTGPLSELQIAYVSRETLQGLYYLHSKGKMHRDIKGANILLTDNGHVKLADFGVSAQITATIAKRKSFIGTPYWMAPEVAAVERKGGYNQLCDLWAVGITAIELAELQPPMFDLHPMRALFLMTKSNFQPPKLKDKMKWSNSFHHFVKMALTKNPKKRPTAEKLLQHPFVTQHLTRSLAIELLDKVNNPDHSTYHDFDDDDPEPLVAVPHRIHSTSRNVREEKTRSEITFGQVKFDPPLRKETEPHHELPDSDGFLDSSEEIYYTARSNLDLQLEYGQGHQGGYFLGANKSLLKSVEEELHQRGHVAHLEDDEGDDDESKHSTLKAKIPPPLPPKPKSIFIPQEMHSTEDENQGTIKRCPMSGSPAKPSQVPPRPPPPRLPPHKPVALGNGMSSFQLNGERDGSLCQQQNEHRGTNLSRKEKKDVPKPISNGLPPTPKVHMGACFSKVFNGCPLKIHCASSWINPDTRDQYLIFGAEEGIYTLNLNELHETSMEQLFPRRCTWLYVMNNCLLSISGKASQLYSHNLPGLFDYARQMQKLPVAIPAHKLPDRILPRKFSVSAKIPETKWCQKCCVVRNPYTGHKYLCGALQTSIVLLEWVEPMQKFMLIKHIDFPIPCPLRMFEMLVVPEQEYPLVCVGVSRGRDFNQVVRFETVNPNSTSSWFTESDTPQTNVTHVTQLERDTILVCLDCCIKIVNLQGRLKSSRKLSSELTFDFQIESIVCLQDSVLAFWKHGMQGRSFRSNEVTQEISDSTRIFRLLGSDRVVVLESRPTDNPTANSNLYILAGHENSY

[15] = target: Serine/threonine-protein kinase 38 (Homo sapiens) (UniProt Q15208); assay: Binding affinity to wild-type human partial length NDR1 (N33 to E449 residues) expressed in mammalian expression system assessed as residual binding level at 10 uM by Kinomescan method relative to control
[16] = target: Serine/threonine-protein kinase Nek1 (Homo sapiens) (UniProt Q96PY6); assay: Binding affinity to wild-type human partial length NEK1 (M1 to K278 residues) expressed in bacterial expression system assessed as residual binding level at 10 uM by Kinomescan method relative to control
[17] = target: Serine/threonine-protein kinase NLK (Homo sapiens) (UniProt Q9UBE8); assay: Binding affinity to wild-type human full length NLK (M13 to E527 residues) expressed in bacterial expression system assessed as residual binding level at 10 uM by Kinomescan method relative to control
[18] = target: Serine/threonine-protein kinase PAK 2 (Homo sapiens) (UniProt Q13177); assay: Binding affinity to wild-type human partial length PAK2 (P151 to R525 residues) expressed in bacterial expression system assessed as residual binding level at 10 uM by Kinomescan method relative to control
[19] = target: Serine/threonine-protein kinase N2 (Homo sapiens) (UniProt Q16513); assay: Binding affinity to wild-type human partial length PKN2 (E634 to C984 residues) expressed in bacterial expression system assessed as residual binding level at 10 uM by Kinomescan method relative to control
[20] = target: Ribosomal protein S6 kinase alpha-3 (Homo sapiens) (UniProt P51812); assay: Binding affinity to wild-type human partial length C-terminal RSK2 kinase domain 2 (V402 to S715 residues) expressed in mammalian expression system assessed as residual binding level at 10 uM by Kinomescan method relative to control
[21] = target: SRSF protein kinase 2 (Homo sapiens) (UniProt P78362); assay: Binding affinity to wild-type human full length SRPK2 (M1 to S686 residues) expressed in bacterial expression system assessed as residual binding level at 10 uM by Kinomescan method relative to control
[22] = target: Tyrosine-protein kinase SYK (Homo sapiens) (UniProt P43405); assay: Binding affinity to wild-type human partial length SYK (D354 to N635 residues) expressed in bacterial expression system assessed as residual binding level at 10 uM by Kinomescan method relative to control
[23] = target: NT-3 growth factor receptor (Homo sapiens) (UniProt Q16288); assay: Binding affinity to wild-type human partial length TRKC (Q531 to G825 residues) expressed in mammalian expression system assessed as residual binding level at 10 uM by Kinomescan method relative to control
[24] = target: Testis-specific serine/threonine-protein kinase 1 (Homo sapiens) (UniProt Q9BXA7); assay: Binding affinity to wild-type human full length TSSK1B (M1 to Q367 residues) expressed in bacterial expression system assessed as residual binding level at 10 uM by Kinomescan method relative to control
Chain of Testis-specific serine/threonine-protein kinase 1 (Homo sapiens) (Q9BXA7 whole entry, the tested form may be a part): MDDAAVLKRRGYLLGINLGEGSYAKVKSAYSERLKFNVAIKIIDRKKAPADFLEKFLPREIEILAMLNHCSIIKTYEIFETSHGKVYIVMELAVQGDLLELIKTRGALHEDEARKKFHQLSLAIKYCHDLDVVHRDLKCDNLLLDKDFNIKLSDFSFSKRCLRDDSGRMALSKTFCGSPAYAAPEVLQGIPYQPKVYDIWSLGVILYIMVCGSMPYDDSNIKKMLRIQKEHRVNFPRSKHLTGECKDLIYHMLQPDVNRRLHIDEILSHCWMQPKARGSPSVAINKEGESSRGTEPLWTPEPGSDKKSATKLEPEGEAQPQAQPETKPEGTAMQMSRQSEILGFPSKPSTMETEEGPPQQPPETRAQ

Compound: CC(C)N1C(=O)C(NCCCN(C)C)=C(c2cn(C)c3ccccc23)C1=O.Cl
- Activity [1]: 96%
- Activity [2]: 89%
- Activity [3]: 84%
- Activity [4]: 95%
- Activity [5]: 91%
- Activity [6]: 83%
- Activity [7]: 100%
- Activity [8]: 100%
- Activity [9]: 87%
- Activity [10]: 88%
- Activity [11]: 99%
- Activity [12]: 100%
- Activity [13]: 82%
- Activity [14]: 96%
- Activity [15]: 93%
- Activity [16]: 100%
- Activity [17]: 94%
- Activity [18]: 100%
- Activity [19]: 95%
- Activity [20]: 87%
- Activity [21]: 100%
- Activity [22]: 82%
- Activity [23]: 100%
- Activity [24]: 100%
